What was measured:
[1] = background statement; cited from earlier work
histamine-H2-receptors = biological target: T1, histamine-H2-receptors (Cavia porcellus, UniProt P47747); assay: pA2 determination of H2-antagonistic activity in vitro on the isolated atrium of guinea pigs; settings: isolated guinea pig atrium
T1 construct: in vitro on the isolated atrium of guinea pigs; from tissue; host or cells: isolated guinea pig atrium
Text: A recognized method of measuring H2 -antagonistic activity is based on determination of the pA2 -values in vitro on the isolated atrium of guinea pigs (cf. Ariens, Molecular Pharmacology, Vol. 1, Academic Press, New York, 1964).

T1 sequence (P47747 whole entry): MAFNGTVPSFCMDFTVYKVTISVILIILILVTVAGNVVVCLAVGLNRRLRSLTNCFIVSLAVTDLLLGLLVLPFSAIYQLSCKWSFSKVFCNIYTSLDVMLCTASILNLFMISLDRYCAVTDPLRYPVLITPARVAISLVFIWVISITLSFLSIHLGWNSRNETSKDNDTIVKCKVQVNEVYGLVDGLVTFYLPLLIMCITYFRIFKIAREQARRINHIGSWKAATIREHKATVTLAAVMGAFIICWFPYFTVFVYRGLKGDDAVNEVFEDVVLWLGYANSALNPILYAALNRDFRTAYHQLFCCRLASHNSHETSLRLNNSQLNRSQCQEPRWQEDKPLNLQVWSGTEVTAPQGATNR

Compound	half life [1]	Kb (histamine-H2-receptors) [nM]
CN/C(=N/CCSCc1nc[nH]c1C)NC#N [Cimetidine, cimetidine]	relatively short half life	–
Cc1ccc(Cc2cnc(CCCCOc3cccc(CN4CCCCC4)c3)[nH]c2=O)cn1 [Example 1, 5-(6-methylpyrid-3-ylmethyl)-2-[4-[3-(1-piperidylmethyl)-phenoxy]-butyl]-pyrimidin-4-one]	–	21.9
